# Tests used:
# Test in all cases: Proqinase Kinase profiling
# Type in all cases: biochemical
# [1] = target: T1, PRKCB1_II (Homo sapiens, UniProt P05771); conditions: read-out: % inhibition at 100nM
# T1 construct: purchased DiscoverX
# [2] = target: T2, LYN (Homo sapiens, UniProt P07948); conditions: read-out: % inhibition at 100nM
# T2 construct: purchased DiscoverX
# [3] = target: T3, TGFbR1 (Homo sapiens, UniProt P36897); conditions: read-out: % inhibition at 100nM
# T3 construct: purchased DiscoverX
# [4] = target: T4, RAF1 (Homo sapiens, UniProt P04049); conditions: read-out: % inhibition at 100nM
# T4 construct: purchased DiscoverX
# [5] = target: T5, RET_S891A (Homo sapiens, UniProt P07949, S891A); conditions: read-out: % inhibition at 100nM
# T5 construct: purchased DiscoverX
# [6] = target: T6, MET (Homo sapiens, UniProt P08581); conditions: read-out: % inhibition at 100nM
# T6 construct: purchased DiscoverX
# [7] = target: T7, GCK (Homo sapiens, UniProt Q12851); conditions: read-out: % inhibition at 100nM
# T7 construct: purchased DiscoverX
# [8] = target: T8, EGFR_G719C (Homo sapiens, UniProt P00533, G719C); conditions: read-out: % inhibition at 100nM
# T8 construct: purchased DiscoverX
# [9] = target: T9, MAPK14 (Homo sapiens, UniProt Q16539); conditions: read-out: % inhibition at 100nM
# T9 construct: purchased DiscoverX
# [10] = target: T10, BRAF_V600E (Homo sapiens, UniProt P15056, V600E); conditions: read-out: % inhibition at 100nM
# T10 construct: purchased DiscoverX
# [11] = target: T11, WNK2 (Homo sapiens, UniProt Q9Y3S1); conditions: read-out: % inhibition at 100nM
# T11 construct: purchased DiscoverX
# [12] = target: T12, TXK (Homo sapiens, UniProt P42681); conditions: read-out: % inhibition at 100nM
# T12 construct: purchased DiscoverX
# [13] = target: T13, MET_Y1230C (Homo sapiens, UniProt P08581, Y1230C); conditions: read-out: % inhibition at 100nM
# T13 construct: purchased DiscoverX
# [14] = target: T14, HIPK4 (Homo sapiens, UniProt Q8NE63); conditions: read-out: % inhibition at 100nM
# T14 construct: purchased DiscoverX
# [15] = target: T15, MET_Y1235D (Homo sapiens, UniProt P08581, Y1235D); conditions: read-out: % inhibition at 100nM
# T15 construct: purchased DiscoverX
# [16] = system: FLT3_ITD
# [17] = target: T16, MET_D1228N (Homo sapiens, UniProt P08581, D1228N); conditions: read-out: % inhibition at 100nM
# T16 construct: purchased DiscoverX
# [18] = target: T17, RPS6KA1 (Homo sapiens, UniProt Q15418); conditions: read-out: % inhibition at 100nM
# T17 construct: purchased DiscoverX
# [19] = target: T18, MARK4 (Homo sapiens, UniProt Q96L34); conditions: read-out: % inhibition at 100nM
# T18 construct: purchased DiscoverX
# [20] = target: T19, INSRR (Homo sapiens, UniProt P14616); conditions: read-out: % inhibition at 100nM
# T19 construct: purchased DiscoverX
# [21] = target: T20, TEK_R849W (Homo sapiens, UniProt Q02763, R849W); conditions: read-out: % inhibition at 100nM
# T20 construct: purchased DiscoverX
# [22] = target: T21, TAOK2 (Homo sapiens, UniProt Q9UL54); conditions: read-out: % inhibition at 100nM
# T21 construct: purchased DiscoverX
# [23] = target: T22, PRKCH (Homo sapiens, UniProt P24723); conditions: read-out: % inhibition at 100nM
# T22 construct: purchased DiscoverX
# [24] = target: T23, ROCK1 (Homo sapiens, UniProt Q13464); conditions: read-out: % inhibition at 100nM
# T23 construct: purchased DiscoverX
# [25] = target: T24, ALK_L1196M (Homo sapiens, UniProt Q9UM73, L1196M); conditions: read-out: % inhibition at 100nM
# T24 construct: purchased DiscoverX
# [26] = target: T25, FLT4 (Homo sapiens, UniProt P35916); conditions: read-out: % inhibition at 100nM
# T25 construct: purchased DiscoverX
# [27] = target: T26, NEK9 (Homo sapiens, UniProt Q8TD19); conditions: read-out: % inhibition at 100nM
# T26 construct: purchased DiscoverX
# [28] = target: T27, MAPK3 (Homo sapiens, UniProt P27361); conditions: read-out: % inhibition at 100nM
# T27 construct: purchased DiscoverX
# [29] = target: T28, MAPKAPK2 (Homo sapiens, UniProt P49137); conditions: read-out: % inhibition at 100nM
# T28 construct: purchased DiscoverX
# [30] = target: T29, RPS6KB1 (Homo sapiens, UniProt P23443); conditions: read-out: % inhibition at 100nM
# T29 construct: purchased DiscoverX
# [31] = target: T30, MAPK12 (Homo sapiens, UniProt P53778); conditions: read-out: % inhibition at 100nM
# T30 construct: purchased DiscoverX
# [32] = target: T31, JAK2 (Homo sapiens, UniProt O60674); conditions: read-out: % inhibition at 100nM
# T31 construct: purchased DiscoverX
# [33] = target: T32, NEK6 (Homo sapiens, UniProt Q9HC98); conditions: read-out: % inhibition at 100nM
# T32 construct: purchased DiscoverX
# [34] = target: T33, TEC (Homo sapiens, UniProt P42680); conditions: read-out: % inhibition at 100nM
# T33 construct: purchased DiscoverX
# [35] = target: T34, MAP3K10 (Homo sapiens, UniProt Q02779); conditions: read-out: % inhibition at 100nM
# T34 construct: purchased DiscoverX
# [36] = target: T35, ALK_F1174S (Homo sapiens, UniProt Q9UM73, F1174S); conditions: read-out: % inhibition at 100nM
# T35 construct: purchased DiscoverX
# [37] = target: T36, ABL1_F317I (Homo sapiens, UniProt P00519, F317I); conditions: read-out: % inhibition at 100nM
# T36 construct: purchased DiscoverX
# [38] = target: T37, CDK9_cyclinT1 (Homo sapiens, UniProt P50750); conditions: read-out: % inhibition at 100nM
# T37 construct: purchased DiscoverX
# [39] = target: T38, JAK1 (Homo sapiens, UniProt P23458); conditions: read-out: % inhibition at 100nM
# T38 construct: purchased DiscoverX
# [40] = target: T39, CDC42BPB (Homo sapiens, UniProt Q9Y5S2); conditions: read-out: % inhibition at 100nM
# T39 construct: purchased DiscoverX
# [41] = target: T40, SRPK2 (Homo sapiens, UniProt P78362); conditions: read-out: % inhibition at 100nM
# T40 construct: purchased DiscoverX
# [42] = target: T41, DYRK1B (Homo sapiens, UniProt Q9Y463); conditions: read-out: % inhibition at 100nM
# T41 construct: purchased DiscoverX
# [43] = target: T42, PAK1 (Homo sapiens, UniProt Q13153); conditions: read-out: % inhibition at 100nM
# T42 construct: purchased DiscoverX
# T12 sequence (P42681 whole entry): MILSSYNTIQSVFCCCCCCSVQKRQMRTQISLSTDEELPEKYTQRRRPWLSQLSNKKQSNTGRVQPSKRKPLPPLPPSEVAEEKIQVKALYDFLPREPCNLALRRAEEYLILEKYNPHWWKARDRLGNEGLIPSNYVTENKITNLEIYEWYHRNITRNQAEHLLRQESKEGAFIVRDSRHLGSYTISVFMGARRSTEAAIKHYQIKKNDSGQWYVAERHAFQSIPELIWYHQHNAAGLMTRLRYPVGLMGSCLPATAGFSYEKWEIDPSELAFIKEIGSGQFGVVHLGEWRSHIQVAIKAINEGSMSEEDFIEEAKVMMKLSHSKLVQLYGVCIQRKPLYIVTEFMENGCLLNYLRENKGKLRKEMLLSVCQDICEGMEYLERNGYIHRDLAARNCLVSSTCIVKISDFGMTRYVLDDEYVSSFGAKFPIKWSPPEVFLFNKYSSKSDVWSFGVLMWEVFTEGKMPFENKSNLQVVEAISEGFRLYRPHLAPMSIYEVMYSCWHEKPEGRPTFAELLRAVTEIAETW
# T31 sequence (O60674 whole entry): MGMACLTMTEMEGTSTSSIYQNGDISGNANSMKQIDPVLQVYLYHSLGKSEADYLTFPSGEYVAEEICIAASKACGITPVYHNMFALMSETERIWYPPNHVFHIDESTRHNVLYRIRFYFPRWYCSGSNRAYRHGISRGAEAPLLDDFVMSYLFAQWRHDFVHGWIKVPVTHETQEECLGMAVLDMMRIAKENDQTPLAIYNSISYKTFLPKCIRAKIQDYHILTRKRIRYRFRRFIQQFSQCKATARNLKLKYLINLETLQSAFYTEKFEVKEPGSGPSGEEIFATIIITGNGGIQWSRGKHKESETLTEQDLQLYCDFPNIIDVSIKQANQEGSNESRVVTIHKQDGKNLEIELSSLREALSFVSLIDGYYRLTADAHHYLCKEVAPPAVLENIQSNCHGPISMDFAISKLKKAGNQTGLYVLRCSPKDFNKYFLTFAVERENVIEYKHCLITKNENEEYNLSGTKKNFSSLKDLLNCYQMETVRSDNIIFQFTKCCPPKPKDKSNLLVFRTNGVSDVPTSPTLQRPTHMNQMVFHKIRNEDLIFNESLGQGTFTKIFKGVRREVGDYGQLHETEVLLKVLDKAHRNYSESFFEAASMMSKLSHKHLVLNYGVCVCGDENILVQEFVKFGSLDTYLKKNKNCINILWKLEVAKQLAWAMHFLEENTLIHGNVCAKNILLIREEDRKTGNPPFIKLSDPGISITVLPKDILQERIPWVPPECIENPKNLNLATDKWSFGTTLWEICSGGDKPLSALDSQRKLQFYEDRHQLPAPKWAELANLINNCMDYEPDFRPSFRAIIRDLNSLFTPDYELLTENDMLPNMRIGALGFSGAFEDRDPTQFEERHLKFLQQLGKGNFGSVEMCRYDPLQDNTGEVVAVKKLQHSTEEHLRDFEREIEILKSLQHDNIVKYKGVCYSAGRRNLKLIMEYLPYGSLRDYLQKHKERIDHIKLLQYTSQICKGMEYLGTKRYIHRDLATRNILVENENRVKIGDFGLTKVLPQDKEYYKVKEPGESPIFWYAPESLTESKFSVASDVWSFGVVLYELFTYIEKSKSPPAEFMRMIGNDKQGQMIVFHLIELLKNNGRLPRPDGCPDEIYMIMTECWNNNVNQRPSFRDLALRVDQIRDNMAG
# T32 sequence (Q9HC98 whole entry): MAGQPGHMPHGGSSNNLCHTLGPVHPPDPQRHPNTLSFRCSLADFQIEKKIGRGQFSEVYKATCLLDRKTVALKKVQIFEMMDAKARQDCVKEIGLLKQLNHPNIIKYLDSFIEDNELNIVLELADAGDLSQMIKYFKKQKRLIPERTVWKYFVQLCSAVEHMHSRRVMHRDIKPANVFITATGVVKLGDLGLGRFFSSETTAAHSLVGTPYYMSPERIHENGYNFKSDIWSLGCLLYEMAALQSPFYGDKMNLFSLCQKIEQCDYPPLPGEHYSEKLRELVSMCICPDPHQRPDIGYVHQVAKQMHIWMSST
# T25 sequence (P35916 25-1363): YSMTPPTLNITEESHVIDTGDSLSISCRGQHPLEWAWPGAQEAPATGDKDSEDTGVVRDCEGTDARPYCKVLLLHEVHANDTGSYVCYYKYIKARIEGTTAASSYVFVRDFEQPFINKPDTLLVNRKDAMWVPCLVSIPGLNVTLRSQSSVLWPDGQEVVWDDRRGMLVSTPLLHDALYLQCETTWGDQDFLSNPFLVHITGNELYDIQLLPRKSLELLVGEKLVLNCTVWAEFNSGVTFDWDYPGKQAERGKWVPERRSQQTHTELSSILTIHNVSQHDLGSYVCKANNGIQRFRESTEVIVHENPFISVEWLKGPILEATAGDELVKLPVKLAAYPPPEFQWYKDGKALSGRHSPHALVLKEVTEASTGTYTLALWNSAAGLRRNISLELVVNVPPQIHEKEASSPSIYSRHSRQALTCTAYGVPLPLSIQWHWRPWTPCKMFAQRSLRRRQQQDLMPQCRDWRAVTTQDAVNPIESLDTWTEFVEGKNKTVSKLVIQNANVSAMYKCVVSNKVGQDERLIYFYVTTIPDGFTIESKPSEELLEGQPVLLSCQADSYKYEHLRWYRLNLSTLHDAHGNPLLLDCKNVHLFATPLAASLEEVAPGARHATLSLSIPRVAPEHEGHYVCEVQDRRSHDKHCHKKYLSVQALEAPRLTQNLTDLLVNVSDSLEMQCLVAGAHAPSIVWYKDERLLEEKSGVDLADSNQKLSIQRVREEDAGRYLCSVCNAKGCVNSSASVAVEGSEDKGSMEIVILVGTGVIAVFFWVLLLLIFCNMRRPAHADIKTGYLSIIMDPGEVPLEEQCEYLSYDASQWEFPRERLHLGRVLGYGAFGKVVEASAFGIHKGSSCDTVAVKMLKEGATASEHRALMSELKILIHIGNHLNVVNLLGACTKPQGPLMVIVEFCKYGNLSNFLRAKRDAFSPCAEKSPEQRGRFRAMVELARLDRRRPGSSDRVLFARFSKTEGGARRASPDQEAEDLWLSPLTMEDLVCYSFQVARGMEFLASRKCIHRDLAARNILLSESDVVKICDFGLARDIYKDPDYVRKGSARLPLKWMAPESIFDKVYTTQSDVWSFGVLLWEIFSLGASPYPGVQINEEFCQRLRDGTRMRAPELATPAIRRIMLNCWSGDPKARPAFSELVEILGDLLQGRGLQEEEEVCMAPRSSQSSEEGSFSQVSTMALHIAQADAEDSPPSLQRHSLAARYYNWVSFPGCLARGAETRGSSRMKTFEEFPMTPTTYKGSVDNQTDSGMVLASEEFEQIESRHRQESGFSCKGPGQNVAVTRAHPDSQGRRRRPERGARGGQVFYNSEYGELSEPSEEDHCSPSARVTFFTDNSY
# T27 sequence (P27361 whole entry): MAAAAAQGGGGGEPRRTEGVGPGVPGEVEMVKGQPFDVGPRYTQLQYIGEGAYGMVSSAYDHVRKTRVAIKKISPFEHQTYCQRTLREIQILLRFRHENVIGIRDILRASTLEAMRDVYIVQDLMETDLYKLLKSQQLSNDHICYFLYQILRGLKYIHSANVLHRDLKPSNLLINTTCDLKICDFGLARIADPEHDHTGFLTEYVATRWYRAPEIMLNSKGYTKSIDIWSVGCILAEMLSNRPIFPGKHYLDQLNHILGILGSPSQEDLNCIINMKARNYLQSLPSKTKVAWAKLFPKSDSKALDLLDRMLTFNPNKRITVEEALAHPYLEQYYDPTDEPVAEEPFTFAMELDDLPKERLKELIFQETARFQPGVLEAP
# T19 sequence (P14616 27-1297): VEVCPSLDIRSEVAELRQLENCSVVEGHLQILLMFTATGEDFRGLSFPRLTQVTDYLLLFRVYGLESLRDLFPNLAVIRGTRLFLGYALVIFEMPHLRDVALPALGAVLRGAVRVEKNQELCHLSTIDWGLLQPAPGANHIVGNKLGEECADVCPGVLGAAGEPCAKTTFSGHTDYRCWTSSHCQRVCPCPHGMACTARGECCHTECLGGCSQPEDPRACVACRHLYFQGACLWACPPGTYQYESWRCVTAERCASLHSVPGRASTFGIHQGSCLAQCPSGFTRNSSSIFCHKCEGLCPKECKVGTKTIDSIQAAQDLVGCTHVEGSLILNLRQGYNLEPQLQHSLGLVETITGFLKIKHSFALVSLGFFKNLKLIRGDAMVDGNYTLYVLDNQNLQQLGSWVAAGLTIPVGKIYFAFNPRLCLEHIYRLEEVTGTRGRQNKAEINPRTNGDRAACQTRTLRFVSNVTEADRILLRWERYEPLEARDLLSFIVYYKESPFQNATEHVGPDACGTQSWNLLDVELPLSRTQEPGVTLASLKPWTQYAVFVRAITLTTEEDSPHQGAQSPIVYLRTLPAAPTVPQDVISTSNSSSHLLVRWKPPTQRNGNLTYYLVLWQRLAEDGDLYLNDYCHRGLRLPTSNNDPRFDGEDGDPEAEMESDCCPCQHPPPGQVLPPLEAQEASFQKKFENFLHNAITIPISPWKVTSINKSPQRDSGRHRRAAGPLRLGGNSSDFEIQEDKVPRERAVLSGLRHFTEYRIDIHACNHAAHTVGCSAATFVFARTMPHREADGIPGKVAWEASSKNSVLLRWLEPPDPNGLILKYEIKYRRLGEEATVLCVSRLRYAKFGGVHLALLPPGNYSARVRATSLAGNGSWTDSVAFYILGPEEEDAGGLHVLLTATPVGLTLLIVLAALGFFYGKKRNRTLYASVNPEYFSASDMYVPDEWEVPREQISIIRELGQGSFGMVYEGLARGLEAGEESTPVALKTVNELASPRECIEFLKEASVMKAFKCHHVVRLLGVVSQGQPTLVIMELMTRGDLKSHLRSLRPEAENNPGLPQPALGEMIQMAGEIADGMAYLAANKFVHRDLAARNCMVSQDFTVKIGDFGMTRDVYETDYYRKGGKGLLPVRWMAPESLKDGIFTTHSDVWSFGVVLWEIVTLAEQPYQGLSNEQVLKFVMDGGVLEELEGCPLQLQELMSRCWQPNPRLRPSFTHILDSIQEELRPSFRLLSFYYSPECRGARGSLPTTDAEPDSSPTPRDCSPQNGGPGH
smiles,measurement,setting,value
Clc1cc2cc(c1)-c1cnn3ccc(nc13)NCCOCCO2 [OD36],inhibition at 0.1 µM,[1],-5%
same,inhibition at 0.1 µM,[2],43%
same,inhibition at 0.1 µM,[3],5%
same,inhibition at 0.1 µM,[4],2%
same,inhibition at 0.1 µM,[5],63%
same,inhibition at 0.1 µM,[6],3%
same,inhibition at 0.1 µM,[7],35%
same,inhibition at 0.1 µM,[8],19%
same,inhibition at 0.1 µM,[9],-4%
same,inhibition at 0.1 µM,[10],10%
same,inhibition at 0.1 µM,[11],1%
same,inhibition at 0.1 µM,[12],37%
same,inhibition at 0.1 µM,[13],7%
same,inhibition at 0.1 µM,[14],47%
same,inhibition at 0.1 µM,[15],-5%
same,% inhibition at 100nM,[16],36%
same,inhibition at 0.1 µM,[17],4%
same,inhibition at 0.1 µM,[18],9%
same,inhibition at 0.1 µM,[19],13%
same,inhibition at 0.1 µM,[20],0%
same,inhibition at 0.1 µM,[21],8%
same,inhibition at 0.1 µM,[22],15%
same,inhibition at 0.1 µM,[23],5%
same,inhibition at 0.1 µM,[24],1%
same,inhibition at 0.1 µM,[25],-7%
same,inhibition at 0.1 µM,[26],44%
same,inhibition at 0.1 µM,[27],1%
same,inhibition at 0.1 µM,[28],12%
same,inhibition at 0.1 µM,[29],-9%
same,inhibition at 0.1 µM,[30],-9%
same,inhibition at 0.1 µM,[31],24%
same,inhibition at 0.1 µM,[32],7%
same,inhibition at 0.1 µM,[33],-7%
same,inhibition at 0.1 µM,[34],6%
same,inhibition at 0.1 µM,[35],13%
same,inhibition at 0.1 µM,[36],13%
same,inhibition at 0.1 µM,[37],8%
same,inhibition at 0.1 µM,[38],17%
same,inhibition at 0.1 µM,[39],18%
same,inhibition at 0.1 µM,[40],7%
same,inhibition at 0.1 µM,[41],-2%
same,inhibition at 0.1 µM,[42],13%
same,inhibition at 0.1 µM,[43],18%
Cc1cc2cc(c1)-c1cnn3ccc(nc13)NCCNC(=O)CCN(C)C2 [OD52],inhibition at 0.1 µM,[1],-7%
same,inhibition at 0.1 µM,[2],-14%
same,inhibition at 0.1 µM,[3],4%
same,inhibition at 0.1 µM,[4],-1%
same,inhibition at 0.1 µM,[5],84%
same,inhibition at 0.1 µM,[6],-5%
same,inhibition at 0.1 µM,[7],1%
same,inhibition at 0.1 µM,[8],-31%
same,inhibition at 0.1 µM,[9],1%
same,inhibition at 0.1 µM,[10],-1%
same,inhibition at 0.1 µM,[11],17%
same,inhibition at 0.1 µM,[12],25%
same,inhibition at 0.1 µM,[13],-13%
same,inhibition at 0.1 µM,[14],10%
same,inhibition at 0.1 µM,[15],-15%
same,% inhibition at 100nM,[16],19%
same,inhibition at 0.1 µM,[17],6%
same,inhibition at 0.1 µM,[18],10%
same,inhibition at 0.1 µM,[19],-4%
same,inhibition at 0.1 µM,[20],6%
same,inhibition at 0.1 µM,[21],-16%
same,inhibition at 0.1 µM,[22],3%
same,inhibition at 0.1 µM,[23],-20%
same,inhibition at 0.1 µM,[24],1%
same,inhibition at 0.1 µM,[25],-6%
same,inhibition at 0.1 µM,[26],-13%
same,inhibition at 0.1 µM,[27],-1%
same,inhibition at 0.1 µM,[28],1%
same,inhibition at 0.1 µM,[29],-1%
same,inhibition at 0.1 µM,[30],-2%
same,inhibition at 0.1 µM,[31],-10%
same,inhibition at 0.1 µM,[32],9%
same,inhibition at 0.1 µM,[33],-12%
same,inhibition at 0.1 µM,[34],0%
same,inhibition at 0.1 µM,[35],-3%
same,inhibition at 0.1 µM,[36],-18%
same,inhibition at 0.1 µM,[37],-3%
same,inhibition at 0.1 µM,[38],-3%
same,inhibition at 0.1 µM,[39],-6%
same,inhibition at 0.1 µM,[40],11%
same,inhibition at 0.1 µM,[41],-16%
same,inhibition at 0.1 µM,[42],-6%
same,inhibition at 0.1 µM,[43],-1%

# Reference: paper PMC6874179, “Development of Macrocycle Kinase Inhibitors for ALK2 Using Fibrodysplasia Ossificans Progressiva‐Derived Endothelial Cells” (JBMR Plus, 2019)
